Assay results: US12583820B2, “Broad spectrum antivirals against coronavirus” (priority 2020, dated 2026)
Like-named read-outs stand apart in the source and are kept apart here.

Columns and labels:
3CLpro of SARS-CoV-2 = target: T1, 3CLpro of SARS-CoV-2 (Severe acute respiratory syndrome coronavirus 2, UniProt P0DTD1); experiment: biochemical; type: biochemical
T1 construct: The codon-optimized cDNA of full length of 3CLpro of SARS-CoV-2; 6xHis (N); made in house; pET-28a(+) vector (points to E. coli, my inference)

[1] = Nonspecific cytotoxic effects (CC50), CytoTox 96 kit

SMILES	IC50 (3CLpro of SARS-CoV-2)	CC50 at 72 h [1]	fold higher IC50 than those of 12b and 14c (3CLpro of SARS-CoV-2)	IC50 (3CLpro of SARS-CoV-2; read-out: IC50)
CC(C)CC(NC(=O)OCC1C(c2ccccc2)C1(F)F)C(=O)NC(CC1CCNC1=O)C(O)S(=O)(=O)O (centres unmarked) [GC1270]	0.16 µM			
CC(C)C[C@H](NC(=O)OC(Cc1ccccc1)c1ccccc1)C(=O)N[C@@H](C[C@@H]1CCNC1=O)C(O)S(=O)(=O)O (stereo partly drawn) [Compound 24c, Sodium (2S)-2-((2S)-2-(((1,2-diphenylethoxy)carbonyl)amino)-4-methylpentanamido)-1-hydroxy-3-((S)-2-oxopyrrolidin-3-yl)propane-1-sulfonate]	3.5 µM	> 100 µM		
CC(C)C[C@H](NC(=O)OC1CCC(C)(C)CC1)C(=O)N[C@H](C=O)C[C@@H]1CCNC1=O [Compound 1b, 4,4-Dimethylcyclohexyl ((S)-4-methyl-1-oxo-1-(((S)-1-oxo-3-((S)-2-oxopyrrolidin-3-yl)propan-2-yl)amino)pentan-2-yl)carbamate]	0.28 µM	> 100 µM		
[2H]C([2H])(OC(=O)N[C@@H](CC(C)C)C(=O)N[C@@H](C[C@@H]1CCNC1=O)C(O)S(=O)(=O)[O-])c1ccc(F)cc1.[Na+] (stereo partly drawn) [Compound 20c, Sodium (2S)-2-((S)-2-((((4-fluorophenyl)methoxy-d2)carbonyl)amino)-4-methylpentan amido)-1-hydroxy-3-((S)-2-oxopyrrolidin-3-yl)propane-1-sulfonate]		> 100 µM		
CCCC1CCC(OC(=O)NC(CC(C)C)C(=O)NC(C=O)CC2CCNC2=O)CC1 [Compound 3b, (1s,4S)-4-propylcyclohexyl ((S)-4-methyl-1-oxo-1-(((S)-1-oxo-3-((S)-2-oxopyrrolidin-3-yl)propan-2-yl)amino)pentan-2-yl)carbamate]	0.26 µM	> 100 µM		
CC(C)C[C@H](NC(=O)OCc1ccc(F)cc1)C(=O)N[C@@H](C[C@@H]1CCNC1=O)C(O)S(=O)(=O)O (stereo partly drawn) [Compound 19c, Sodium (2S)-2-((S)-2-((((4-fluorobenzyl)oxy)carbonyl)amino)-4-methylpentanamido)-1-hydroxy-3-((S)-2-oxopyrrolidin-3-yl)propane-1-sulfonate]	0.38 µM	> 100 µM		
CCCCC(OC(=O)N[C@@H](CC(C)C)C(=O)N[C@H](C=O)C[C@@H]1CCNC1=O)C1CCC(F)(F)CC1 (stereo partly drawn) [Compound 16b, 1-(4,4-Difluorocyclohexyl)pentyl ((S)-4-methyl-1-oxo-1-(((S)-1-oxo-3-((S)-2-oxopyrrolidin-3-yl)propan-2-yl)amino)pentan-2-yl)carbamate]	0.16 µM	> 100 µM		
CC(C)C[C@H](NC(=O)OCc1cccc(F)c1)C(=O)N[C@H](C=O)C[C@@H]1CCNC1=O [Compound 18b, 3-Fluorobenzyl ((S)-4-methyl-1-oxo-1-(((S)-1-oxo-3-((S)-2-oxopyrrolidin-3-yl)propan-2-yl)amino)pentan-2-yl)carbamate]	0.32 µM	> 100 µM		
[2H]C([2H])(OC(=O)N[C@@H](CC(C)C)C(=O)N[C@H](C=O)CC1CCNC1=O)c1c(F)c(F)c(F)c(F)c1F (stereo partly drawn) [Compound 22b, (Perfluorophenyl)methyl-d2 ((2S)-4-methyl-1-oxo-1-(((2S)-1-oxo-3-(2-oxopyrrolidin-3-yl)propan-2-yl)amino)pentan-2-yl) carbamate]	0.63 µM	> 100 µM		
CC(C)C[C@H](NC(=O)OC(C)C1CCC(F)(F)CC1)C(=O)N[C@H](C=O)C[C@@H]1CCNC1=O (stereo partly drawn) [Compound 12b, 1-(4,4-Difluorocyclohexyl)ethyl ((S)-4-methyl-1-oxo-1-(((S)-1-oxo-3-((S)-2-oxopyrrolidin-3-yl)propan-2-yl)amino)pentan-2-yl)carbamate]	0.21 µM	> 100 µM		
CC(C)C[C@H](NC(=O)OC(C)(C)C1CCC(F)(F)CC1)C(=O)N[C@@H](C[C@@H]1CCNC1=O)C(O)S(=O)(=O)[O-].[Na+] (stereo partly drawn) [Compound 13c, Sodium (2S)-2-((S)-2-((((2-(4,4-difluorocyclohexyl)propan-2-yl)oxy)carbonyl)amino)-4-methylpentanamido)-1-hydroxy-3-((S)-2-oxopyrrolidin-3-yl)propane-1-sulfonate]	0.9 µM	> 100 µM	~4 fold	
CC(C)CC(NC(=O)OCC1C(c2ccccc2)C1(F)F)C(=O)NC(C=O)CC1CCNC1=O (centres unmarked) [GC1269]	0.14 µM			
[2H]C([2H])(OC(=O)N[C@@H](CC(C)C)C(=O)N[C@H](C=O)C[C@@H]1CCNC1=O)c1ccc(F)cc1 [Compound 20b, (4-Fluorophenyl)methyl-d2 ((S)-4-methyl-1-oxo-1-(((S)-1-oxo-3-((S)-2-oxopyrrolidin-3-yl)propan-2-yl)amino)pentan-2-yl)carbamate]		> 100 µM		
CC(C)C[C@H](NC(=O)OCC(C)(C)Oc1ccc(Cl)cc1)C(=O)N[C@H](C=O)CC1CCNC1=O (some centres unmarked) [MM-II-42]	0.26 µM			
CC(C)C[C@H](NC(=O)OC(Cc1ccccc1)c1ccccc1)C(=O)N[C@H](C=O)C[C@@H]1CCNC1=O (stereo partly drawn) [Compound 24b, 1,2-Diphenylethyl ((S)-4-methyl-1-oxo-1-(((S)-1-oxo-3-((S)-2-oxopyrrolidin-3-yl)propan-2-yl)amino)pentan-2-yl)carbamate]	4.1 µM	> 100 µM		
CCCCC1CCC(OC(=O)NC(CC(C)C)C(=O)NC(C=O)CC2CCNC2=O)CC1 [Compound 4b, (1s,4S)-4-Butylcyclohexyl ((S)-4-methyl-1-oxo-1-(((S)-1-oxo-3-((S)-2-oxopyrrolidin-3-yl)propan-2-yl)amino)pentan-2-yl)carbamate]	0.16 µM	> 100 µM		
CC(C)C[C@H](NC(=O)OC(Cc1ccccc1)C1CCC(F)(F)CC1)C(=O)N[C@H](C=O)C[C@@H]1CCNC1=O (stereo partly drawn) [Compound 14b, 1-(4,4-Difluorocyclohexyl)-2-phenylethyl ((S)-4-methyl-1-oxo-1-(((S)-1-oxo-3-((S)-2-oxopyrrolidin-3-yl)propan-2-yl)amino)pentan-2-yl)carbamate]	0.23 µM	> 100 µM		
CC(C)C[C@H](NC(=O)OCc1ccc(F)cc1)C(=O)N[C@H](C=O)C[C@@H]1CCNC1=O [Compound 19b, 4-Fluorobenzyl ((S)-4-methyl-1-oxo-1-(((S)-1-oxo-3-((S)-2-oxopyrrolidin-3-yl)propan-2-yl)amino)pentan-2-yl)carbamate]		> 100 µM		
CC(C)C[C@H](NC(=O)OCC(C)(C)Oc1ccc(Cl)cc1)C(=O)N[C@@H](CC1CCNC1=O)C(O)S(=O)(=O)O (some centres unmarked) [MM-II-43]	0.24 µM			
CC(C)C[C@H](NC(=O)OCC1CCC(F)(F)CC1)C(=O)N[C@@H](C[C@@H]1CCNC1=O)C(O)S(=O)(=O)O (stereo partly drawn) [Compound 10c, Sodium (2S)-2-((S)-2-((((4,4-difluorocyclohexyl)methoxy)carbonyl)amino)-4-methylpentanamido)-1-hydroxy-3-((S)-2-oxopyrrolidin-3-yl)propane-1-sulfonate]		> 100 µM		0.45 µM
[2H]C([2H])(OC(=O)N[C@@H](CC(C)C)C(=O)N[C@@H](CC1CCNC1=O)C(O)S(=O)(=O)O)c1c(F)c(F)c(F)c(F)c1F (stereo partly drawn) [Compound 22c, Sodium (2S)-1-hydroxy-2-((S)-4-methyl-2-((((perfluorophenyl)methoxy-d2)carbonyl)amino)pentanamido)-3-(2-oxopyrrolidin-3-yl) propane-1-sulfonate]	0.45 µM	> 100 µM		
CC(C)C[C@H](NC(=O)OC(c1ccccc1)C1CCC(F)(F)CC1)C(=O)N[C@H](C=O)C[C@@H]1CCNC1=O (stereo partly drawn) [Compound 15b, (4,4-Difluorocyclohexyl)(phenyl)methyl ((S)-4-methyl-1-oxo-1-(((S)-1-oxo-3-((S)-2-oxopyrrolidin-3-yl)propan-2-yl)amino)pentan-2-yl)carbamate]	0.1 µM	> 100 µM		
CCCCC(OC(=O)N[C@@H](CC(C)C)C(=O)N[C@@H](C[C@@H]1CCNC1=O)C(O)S(=O)(=O)O)C1CCC(F)(F)CC1 (stereo partly drawn) [Compound 16c, Sodium (2S)-2-((2S)-2-((((1-(4,4-difluorocyclohexyl)pentyl)oxy)carbonyl)amino)-4-methylpentanamido)-1-hydroxy-3-((S)-2-oxopyrrolidin-3-yl)propane-1-sulfonate]	0.25 µM	> 100 µM		
CC(C)C[C@H](NC(=O)OC(c1ccccc1)C1CCC(F)(F)CC1)C(=O)N[C@@H](C[C@@H]1CCNC1=O)C(O)S(=O)(=O)O (stereo partly drawn) [Compound 15c, Sodium (2S)-2-((2S)-2-((((4,4-difluorocyclohexyl)(phenyl)methoxy)carbonyl)amino)-4-methylpentanamido)-1-hydroxy-3-((S)-2-oxopyrrolidin-3-yl)propane-1-sulfonate]	0.16 µM	> 100 µM		
CC(C)C[C@H](NC(=O)OCc1ccccc1F)C(=O)N[C@H](C=O)C[C@@H]1CCNC1=O [Compound 17b, 2-Fluorobenzyl ((S)-4-methyl-1-oxo-1-(((S)-1-oxo-3-((S)-2-oxopyrrolidin-3-yl)propan-2-yl)amino)pentan-2-yl)carbamate]	0.38 µM	> 100 µM		
CC(C)C[C@H](NC(=O)OCC1CCC(F)(F)CC1)C(=O)N[C@H](C=O)C[C@@H]1CCNC1=O [Compound 10b, (4,4-Difluorocyclohexyl)methyl ((S)-4-methyl-1-oxo-1-(((S)-1-oxo-3-((S)-2-oxopyrrolidin-3-yl)propan-2-yl)amino)pentan-2-yl)carbamate]		> 100 µM		
CC(C)C[C@H](NC(=O)OCc1c(F)c(F)c(F)c(F)c1F)C(=O)N[C@H](C=O)CC1CCNC1=O (stereo partly drawn) [Compound 21b, (Perfluorophenyl)methyl ((2S)-4-methyl-1-oxo-1-(((2S)-1-oxo-3-(2-oxopyrrolidin-3-yl)propan-2-yl)amino)pentan-2-yl) carbamate]		> 100 µM		
[2H]C([2H])(OC(=O)N[C@@H](CC(C)C)C(=O)N[C@H](C=O)CC1CCNC1=O)C1CCC(F)(F)CC1 (stereo partly drawn) [Compound 11b, (4,4-Difluorocyclohexyl) methyl-d2 ((2S)-4-methyl-1-oxo-1-(((2S)-1-oxo-3-(2-oxopyrrolidin-3-yl)propan-2-yl)amino)pentan-2-yl) carbamate]		> 100 µM		
